Experimental data: patent publication US9067923B2, “Substituted quinoxalines” (Kyowa Hakko Kirin Co., Ltd., priority 2011, dated 2015)

Tested on: production of kynurenine in human gastric cancer cell line KATO-III
Experiment: Inhibitory activity on the production of kynurenine (IFN-γ-treated KATO-III cells)
Type: cell-based
Details: 10 μmol/L test compound, KATO-III cells treated with IFN-γ, 96 hours
Experimental: This assay was performed by a modification of the method described in J. Biol. Chem., vol. 263, pp. 2041-2048 ([…]). For culture of the human gastric cancer cell line […], RPMI 1640 (GIBCO, 11875) supplemented with 10 vol % FBS (GIBCO, 10091-148, lot. 665285) was used. One μL of a test substance in a DMSO solution was diluted with 199 μL of the culture medium and placed in wells of a 384-well plate (10 μL/well). Next, IFN-γ (Sigma, I-3265) was added to a fresh culture medium to a concentration of 31.25 ng/mL, and KATO-III cells were suspended at 50,000 cells/mL in the culture medium. Forty μL of the suspension was added to each well (2,000 cells/well) and cultured under 5% CO2 at 37° C. for 96 hours. The final concentration of DMSO was limited to 0.1 vol % or less so that DMSO itself may not affect the kynurenine concentration measured in this assay. After the culture, 10 μL of a 30 w/v % aqueous trichloroacetic acid solution was added to each well, and incubation was performed at 65° C. for 30 minutes. The plate was centrifruged at 2,500×g for 5 minutes and 15 μL of the supernatant in each well was transferred into another 384-well plate. To the transferred supernatant, 15 μL of a 2 w/v % solution of p-dimethylaminobenzaldehyde in acetic acid was added, incubation was performed at 65° C. for 20 minutes and the absorbance was measured at 480 nm.
Sample: the absorbance value of the well to which DMSO solution containing a test substance was added and in which the cells were treated with IFN-γ.
Blank: the absorbance value of the well to which DMSO not containing a test substance was added and in which the cells were treated with IFN-γ.
Control: the absorbance value of the well to which DMSO not containing a test substance was added and in which the cells were not treated with IFN-γ.
The inhibition % of each test compound was calculated by formula A1.
In this assay, the expression of IDO in KATO-III cells is induced by IFN-γ treatment, and kynurenine in the culture medium is quantified. The kynurenine concentration in a culture medium is known to increase in proportion to the enzymatic activity of intracellular IDO (for example, J. Biol. Chem., vol. 263, pp. 2041-2048 (1988)). […] The production of kynurenine is known to be inhibited by IDO inhibitors (for example, J. Clin. Invest., vol. 117, No. 5, pp. 1147-1154 ([…])), and thus it is speculated that compounds (I) also have an inhibitory effect on IDO.

Row | SMILES | inhibition at 10 µM [%]
1 | CCCS(=O)(=O)Nc1nc2ccccc2nc1OC(C1CCN(c2cc(C(=O)N(C)C)ccn2)CC1)C(F)(F)F (centres unmarked) [Compound 1, N,N-dimethyl-2-(4-(2,2,2-trifluoro-1-(3-(propylsulfonamido)quinoxalin-2-yloxy)ethyl)piperidin-1-yl)isonicotinamide] | ≥ 80
2 | CCCS(=O)(=O)Nc1nc2ccccc2nc1OC(C1CCN(c2ncccc2C(=O)N(C)C)CC1)C(F)(F)F (centres unmarked) [Compound 2, N,N-dimethyl-2-(4-(2,2,2-trifluoro-1-(3-(propylsulfonamido)quinoxalin-2-yloxy)ethyl)piperidin-1-yl)nicotinamide] | ≥ 80
3 | CCCS(=O)(=O)Nc1nc2ccccc2nc1OC(C1CCN(c2cccc(C(=O)N(C)C)n2)CC1)C(F)(F)F (centres unmarked) [Compound 3, N,N-dimethyl-6-(4-(2,2,2-trifluoro-1-(3-(propylsulfonamido)quinoxalin-2-yloxy)ethyl)piperidin-1-yl)picolinamide] | ≥ 80
4 | CCCS(=O)(=O)Nc1nc2ccccc2nc1OC(C1CCN(c2ccc(C(N)=O)nc2)CC1)C(F)(F)F (centres unmarked) [Compound 5, 5-(4-(2,2,2-trifluoro-1-(3-(propylsulfonamido)quinoxalin-2-yloxy)ethyl)piperidin-1-yl)picolinamide] | ≥ 80
5 | CCCS(=O)(=O)Nc1nc2ccccc2nc1OC(C1CCN(c2cc(C#N)ccn2)CC1)C(F)(F)F (centres unmarked) [Compound 6, N-(3-(1-(1-(4-cyanopyridin-2-yl)piperidin-4-yl)-2,2,2-trifluoroethoxy)quinoxalin-2-yl)propane-1-sulfonamide] | ≥ 80
6 | CCCS(=O)(=O)Nc1nc2ccccc2nc1OC(C1CCN(c2cncc(C#N)c2)CC1)C(F)(F)F (centres unmarked) [Compound 7, N-(3-(1-(1-(5-cyanopyridin-3-yl)piperidin-4-yl)-2,2,2-trifluoroethoxy)quinoxalin-2-yl)propane-1-sulfonamide] | ≥ 80
7 | CCCS(=O)(=O)Nc1nc2ccccc2nc1OC(C1CCN(c2ccc(C(=O)N(C)C)cn2)CC1)C(F)(F)F (centres unmarked) [Compound 8, N,N-dimethyl-6-(4-(2,2,2-trifluoro-1-(3-(propylsulfonamido)quinoxalin-2-yloxy)ethyl)piperidin-1-yl)nicotinamide] | ≥ 80
8 | CCCS(=O)(=O)Nc1nc2ccccc2nc1OC(C1CCN(c2ncccc2C#N)CC1)C(F)(F)F (centres unmarked) [Compound 9, N-(3-(1-(1-(3-cyanopyridin-2-yl)piperidin-4-yl)-2,2,2-trifluoroethoxy)quinoxalin-2-yl)propane-1-sulfonamide] | ≥ 80
9 | CCCS(=O)(=O)Nc1nc2ccccc2nc1OC(C1CCN(c2ncccc2C(N)=O)CC1)C(F)(F)F (centres unmarked) [Compound 10, 2-(4-(2,2,2-trifluoro-1-(3-(propylsulfonamido)quinoxalin-2-yloxy)ethyl)piperidin-1-yl)nicotinamide] | ≥ 80
10 | CCCS(=O)(=O)Nc1nc2ccccc2nc1OC(C1CCN(c2nnnn2C)CC1)C(F)(F)F (centres unmarked) [Compound 12, N-(3-(2,2,2-trifluoro-1-(1-(1-methyl-1H-tetrazol-5-yl)piperidin-4-yl)ethoxy)quinoxalin-2-yl)propane-1-sulfonamide] | ≥ 80
11 | CCCS(=O)(=O)Nc1nc2ccccc2nc1OC(C1CCN(c2cnccn2)CC1)C(F)(F)F (centres unmarked) [Compound 13, N-(3-(2,2,2-trifluoro-1-(1-(pyrazin-2-yl)piperidin-4-yl)ethoxy)quinoxalin-2-yl)propane-1-sulfonamide] | ≥ 80
12 | CCCS(=O)(=O)Nc1nc2ccccc2nc1OC(C1CCN(c2cncnc2)CC1)C(F)(F)F (centres unmarked) [Compound 14, N-(3-(2,2,2-trifluoro-1-(1-(pyrimidin-5-yl)piperidin-4-yl)ethoxy)quinoxalin-2-yl)propane-1-sulfonamide] | ≥ 80
13 | CCCS(=O)(=O)Nc1nc2ccccc2nc1OC(C1CCN(c2ccc(C#N)cn2)CC1)C(F)(F)F (centres unmarked) [Compound 15, N-(3-(1-(1-(5-cyanopyridin-2-yl)piperidin-4-yl)-2,2,2-trifluoroethoxy)quinoxalin-2-yl)propane-1-sulfonamide] | ≥ 80
14 | CCCS(=O)(=O)Nc1nc2ccccc2nc1OC(C1CCN(c2ccnc(C#N)c2)CC1)C(F)(F)F (centres unmarked) [Compound 16, N-(3-(1-(1-(2-cyanopyridin-4-yl)piperidin-4-yl)-2,2,2-trifluoroethoxy)quinoxalin-2-yl)propane-1-sulfonamide] | ≥ 80
15 | CCCS(=O)(=O)Nc1nc2ccccc2nc1OC(C1CCN(c2ccncc2C#N)CC1)C(F)(F)F (centres unmarked) [Compound 17, N-(3-(1-(1-(3-cyanopyridin-4-yl)piperidin-4-yl)-2,2,2-trifluoroethoxy)quinoxalin-2-yl)propane-1-sulfonamide] | ≥ 80
16 | CCCS(=O)(=O)Nc1nc2ccccc2nc1OC(C1CCN(c2nccs2)CC1)C(F)(F)F (centres unmarked) [Compound 18, N-(3-(2,2,2-trifluoro-1-(1-(thiazol-2-yl)piperidin-4-yl)ethoxy)quinoxalin-2-yl)propane-1-sulfonamide] | ≥ 80
17 | CCCS(=O)(=O)Nc1nc2ccccc2nc1OC(C1CCN(c2ccc(C(N)=O)cn2)CC1)C(F)(F)F (centres unmarked) [Compound 19, 6-(4-(2,2,2-trifluoro-1-(3-(propylsulfonamido)quinoxalin-2-yloxy)ethyl)piperidin-1-yl)nicotinamide] | ≥ 80
18 | CCCS(=O)(=O)Nc1nc2ccccc2nc1OC(C1CCN(c2ccccn2)CC1)C(F)(F)F (centres unmarked) [Compound 20, N-(3-(2,2,2-trifluoro-1-(1-(pyridin-2-yl)piperidin-4-yl)ethoxy)quinoxalin-2-yl)propane-1-sulfonamide] | ≥ 80
19 | CCCS(=O)(=O)Nc1nc2ccccc2nc1OC(C1CCN(c2cccnc2)CC1)C(F)(F)F (centres unmarked) [Compound 21, N-(3-(2,2,2-trifluoro-1-(1-(pyridin-3-yl)piperidin-4-yl)ethoxy)quinoxalin-2-yl)propane-1-sulfonamide] | ≥ 80
20 | COCCS(=O)(=O)Nc1nc2ccccc2nc1OC(c1ccc(-c2noc(C3CC3)n2)nc1)C(F)(F)F (centres unmarked) [Compound 23, N-(3-(1-(6-(5-cyclopropyl-1,2,4-oxadiazol-3-yl)pyridin-3-yl)-2,2,2-trifluoroethoxy)quinoxalin-2-yl)-2-methoxyethanesulfonamide] | ≥ 80
21 | CCCS(=O)(=O)Nc1nc2ccccc2nc1OC(c1ccc(-c2noc(COC)n2)nc1)C(F)(F)F (centres unmarked) [Compound 26, N-(3-(2,2,2-trifluoro-1-(6-(5-(methoxymethyl)-1,2,4-oxadiazol-3-yl)pyridin-3-yl)ethoxy)quinoxalin-2-yl)propane-1-sulfonamide] | ≥ 80
22 | CCCS(=O)(=O)Nc1nc2ccccc2nc1O[C@H](c1cnc(C(C)=O)s1)C(F)(F)F [Compound 32, (S)-N-(3-(1-(2-acetylthiazol-5-yl)-2,2,2-trifluoroethoxy)quinoxalin-2-yl)propane-1-sulfonamide] | ≥ 80
23 | CCCS(=O)(=O)Nc1nc2ccccc2nc1O[C@H](C1CCN(c2ccc(C(N)=O)nc2)CC1)C(F)(F)F [Compound 34, (R)-5-(4-(2,2,2-trifluoro-1-(3-(propylsulfonamido)quinoxalin-2-yloxy)ethyl)piperidin-1-yl)picolinamide] | ≥ 80
